# Data from patent US20240366551A1, “MIXTURES AND COMPOSITIONS COMPRISING SULFORAPHANE AND GLYCINE” (SOCIETE DES PRODUITS NESTLE S.A., priority 2021, published 2024).
# Test system: Zebrafish larvae
# Test: Zebrafish larvae survival assay under hydrogen peroxide oxidative stress
# Type: in vivo, zebrafish (AB strain)
# Settings: for larvae survived: compound 12 h before H2O2, survival after 24 h
# Procedure: Zebrafish larvae provide a suitable vertebrate model for studying the oxidative stress […]. […] Survival assays were performed according to a protocol described previously^36 with some modifications. Briefly, wild-type zebrafish larvae
# (AB strain, ZFIN ID: ZDB-GENO-960809-7) were used. At 3.5 days post fertilization (dpf), 24 larvae per condition were placed in a 60-mm petri dish with 5 ml of egg water (0.6 g/L Ocean sea salt, Tecniplast). Compounds of interest were directly added into the egg water for 12 h. Subsequently, compounds were removed at 4 days post fertilization (dpf4) and larvae were transferred to a 96-well plate in a volume of 200 μl fresh egg water containing 2.5 mM hydrogen peroxide (H2O2; Sigma Merck). Survival was monitored after 24 h of treatment.
Compound,"Predicted (LS) mean diff (survival, comparison 0 μM vs. treated group, 2.5 mM H2O2, 2 way ANOVA, Tukey's)",larvae survived (vehicle+2.5 mM H2O2+1 μM Sfn),larvae survived (vehicle+2.5 mM H2O2+500 μM L-glycine)
"C[S+]([O-])CCCCN=C=S (stereo not drawn) [Sfn, 4-methylsulfinylbutyl isothiocyanate]",−7.077,~10%,
NCC(=O)O [L-glycine],,,~10%
